In patent publication US8552064B2, “Suramin and derivatives thereof as topical microbicide and contraceptive” (Eastern Virginia Medical School, priority 2005, dated 2013):
In brackets after ≈: the same amount, converted by molar mass. Where two headings read alike, the source gives them in different places.

Legend:
[1] = system: sperm; assay: Sander Cramer sperm immobilization test; format: cell-based
Experimental: The Sander Cramer test was used to determine the effect on sperm immobilization as described in Sander F V and Cramer S D., Hum. Fertil. 6: 134-153 (1941). This test may be used to evaluate the sperm-immobilizing effectiveness of contraceptive compositions. Serial dilutions of each test composition were added to semen adjusted to a designated number, e.g., 60 million of motile sperm per milliliter at room temperature (i.e., 25° C.). The end point is the greatest dilution at which all of the sperm are immobilized within 20 seconds. Results are expressed as minimum effective concentration in milligrams per milliliter.

[2] = system: human sperm acrosome reaction; assay: Acrosome reaction ionophore challenge test (ARIC); format: cell-based
From the text: The acrosome reaction ionophore challenge test (ARIC) was used, as described in Cummins J. M., et al., J. Androl., 12: 98-103 (1991), to measure the proportion of spermatozoa that respond to a calcium ionophore (typically, A23187), developing an acrosome reaction. More specifically, this test was used to determine whether suramin sodium affects the ionophore-induced acrosome reaction of the sperm, therefore altering the capacity of sperm to penetrate an egg. Results are expressed in percent inhibition of control (untreated sperm) acrosome reactions. 2.

[3] = system: rabbit sperm; assay: Rabbit contraceptive efficacy, ex-vivo sperm mixing; format: in vivo; details: for inhibition of pregnancy rates (PR): 1 mM (1.4 mg/mL), Table 6: 0.1% (~1 mM); for Implantation Sites (Mean ± SD): 11 days post-insemination
Experimental: Semen was collected from New Zealand White (NZW) male rabbits with the aid of an artifical vagina, pooled and adjusted with a modified Tyrode's albumin lactate pyruvate (TALP) medium to 50 million motile sperm per milliliter. Ovulation was induced in females by injection of 200 IU of human chorionic gonadotropin (hCG) intravenously. Under the ex-vivo (in-vitro) mixing protocol, sperm were incubated with indicated suramin test compounds in a tube for 15 minutes at 37° C. prior to insemination (0.5 mL) as described in Anderson R. A., et al. J. Androl., 21: 862-875 (2000). […] Sperm-compound contact, in this case, took place in vivo, inside the vagina. Insemination and administration of the compound was performed with a flexible, 12 cm long polyurethane catheter. The main endpoints for both protocols were the number of implantation sites counted 11 days after insemination and pregnancy rate. Such sites were counted by visual inspection of the tubes.

[4] = system: HIV-1 Ba-L; assay: C-MAGI/Ba-L assay (viral entry inhibition, BaL); format: cell-based; details: for IC50: Human immunodeficiency virus 1, BAL
Experimental: The C-MAGI/Ba-L assays were carried out with MAGI-CCR-5 cells. The cell line was maintained in DMEM medium containing 10% FBS, 100 U/ml penicillin, 300 μg/mL glutamate and selection antibiotics as indicated above. Before assay, the cells were placed in 96 well flat tissue culture plates at 1×10^4 cells per well, and incubated overnight in the absence of antibiotics. The next day, medium was removed, and virus and compound (100 μL virus (HIVBa-L)+100 μL compound) were added. The cultures were incubated for 2 hours to facilitate virus attachment. After this incubation, the medium is removed from the wells, replaced with fresh compound-free medium, washed twice and finally incubated at 37° C. for 2 days in fresh medium. Following incubation, the medium was removed and induction of β-galactosidase enzyme activity was detected by chemiluminescence. β-galactosidase activity was detected using a chemiluminescence substrate, following the manufacture's instructions (Tropix). The TC50 and IC50 are determined using linear regression and a therapeutic index or antiviral index calculated. The results of this assay are provided herein.

[5] = system: SIV; assay: SIV reverse transcriptase assay; format: cell-based
Experimental: Reverse transcriptase activity, a measurement of virus replication, was measured in cell-free supernatants. Tritiated thymidine triphosphate (NEN) (TFP) was resuspended in distilled H2O at 5 Ci/mL. Poly rA and oligo dT were prepared as a stock solution which was kept at −20° C. The RT reaction buffer was prepared fresh on a daily basis and consisted of 125 μL 1.0 M EGTA, 125 μL dH2O, 110 μL 10% […], 50 μL 1.0 M Tris (pH 7.4), 50 μL 1.0 M DTT, and 40 μL 1.0 M MgCl2. These three solutions were mixed together in a ratio of 2 parts TTP, 1 part poly rA:oligo dT, and 1 part reaction buffer. Ten microliters (10 μL) of this reaction mixture was placed in a round bottom microtiter plate and 15 μL of virus containing supernatant added and mixed. The plate was incubated at 37° C. for 60 minutes. Following reaction, the reaction volume was spotted onto pieces of DE81 paper, washed 5 times for 5 minutes each in a 5% sodium phosphate buffer, 2 times for 1 minute each in distilled water, 2 times for 1 minute each in 70% ethanol, and then dried. Opti-Fluor 0 was added to each sample and incorporated radioactivity quantitated utilizing a Wallac 1450 Microbetaplus liquid scintillation counter. The results of this assay are provided herein.

[6] = system: murine cytomegalovirus (MCMV) binding to NIH3T3 fibroblasts; assay: Cytomegalovirus binding assay; format: cell-based
Experimental: In a cytomegalovirus binding assay, tritiated murine cytomegalovirus (MCMV) was incubated with NIH3T3 fibroblasts in a 24-well plate fixed (0.4% paraformaldehyde) for 2 hours at 37° C. (rocking) in the presence of media alone or media containing 1-1000 μg/mL suramin. Cells were then washed extensively and lysed with 1% SDS and triton X-100. Lysates were quantified for radioactivity (cpm) in a scintillation counter.

[7] = system: interleukin release by vaginal cells; format: cell-based, human
Experimental: Interleukin levels were assessed in the supernatant collected after 6 hours of compound-cells incubation using commercial ELISA kits (R&D Diagnostics, Minneapolis, Minn.) according to manufacturer's instructions (also see Fichorova R. N. et al., J. Infect. Dis. 184(4): 418-28, 2001).

[8] = system: Lactobacillus gasseri; assay: Lactobacilli growth; format: cell-based

## Cc1ccc(C(=O)Nc2ccc(S(=O)(=O)O)c3cc(S(=O)(=O)O)cc(S(=O)(=O)O)c23)cc1NC(=O)c1cccc(NC(=O)Nc2cccc(C(=O)Nc3cc(C(=O)Nc4ccc(S(=O)(=O)O)c5cc(S(=O)(=O)O)cc(S(=O)(=O)O)c45)ccc3C)c2)c1 [Suramin, 8,8′-(carbonylbis(imino-3,1-phenylenecarbonylimino(4-methyl-3,1-phenylene)carbonylimino))bis-1,3,5-naphthalene trisulfonic acid]
[1]; 20 mg/mL
  sperm-immobilizing activity: no significant sperm-immobilizing activity
[1]; 10 and 5 mg/mL
  sperm motility in Sander Cramer test: all spermatozoa from samples were motile
[1]; highest concentration = 25 mg/mL
  Potency, Motility (Sander Cramer, Motility, CASA): None
[2]
  effect on spontaneous and ionophore-induced acrosome reaction: neither to stimulate spontaneous acrosome reaction (acrosomal loss) nor to block the Ca^2+ ionophore-induced reaction
[2]; Calcium-ionophore treatment (5 μM A23187): +
  Percentage of acrosome-reacted Sperm: 31.4 ± 15.1%
[2]; Calcium-ionophore treatment (5 μM A23187): −
  Percentage of acrosome-reacted Sperm: 5.28 ± 1.93%
[2]; induction or inhibition of acrosome reaction
  Potency, Acrosome Reaction (ARIC): None
[3]; 0.1 mg/mL
  effect on PR: did not significantly reduce PR
[3]
  inhibition of pregnancy rates (PR): 86% inhibition
[3]; listed as suramin sodium
  inhibition of pregnancy rates (PR): 86%
[3]; 5% in KY Jelly (Table 6)
  inhibition, rabbit pretreated sperm: 100% inhibition
[3]; five percent (5%) concentration
  prevention of pregnancies: completely prevented pregnancies
[3]; rabbit, in vivo
  Potency, Contraception, rabbit pretreated sperm (In-vitro mixing): Moderate
[3]; suramin 0.1 mg/ml
  Pregnancy Rate (%): 83%
  Implantation Sites (Mean ± SD): 4.4 ± 0.8
[3]; suramin 0.1 mg/ml, listed as suramin sodium
  Implantation Sites (Mean ± SD): 4.4±0.8
[3]; suramin 0.1 mg/ml, sperm mixed 15 min before insemination
  Number of Pregnant Females/Total: 5/6
[3]; suramin 1.4 mg/ml
  Pregnancy Rate (%): 14%
  Implantation Sites (Mean ± SD): 1
[3]; suramin 1.4 mg/ml (1 mM)
  Number of Pregnant Females/Total: 1/7
[3]; suramin 50 mg/ml
  Pregnancy Rate (%): 0%
[3]; suramin 50 mg/ml (5%)
  Number of Pregnant Females/Total: 0/7
[4]
  Potency, HIV-1 MAGI-Bal: High
[4]; HeLa, 2 h, read-out: IC50, Cell-Free Strains BaL, CD4/coreceptor expressing HeLa cells, incubation 2 hours
  IC50: 5.5 µg/mL (≈ 4.24 µM)
[4]; 2h-incubation, read-out: IC50 against Bal
  IC50: 0.39 µg/mL (≈ 0.301 µM)
[5]
  Potency, SIV Reverse transcriptase: High
[5]; Simian immunodeficiency virus
  IC50: 4 µg/mL (≈ 3.08 µM)
[6]
  Potency, CMV Binding: Moderate
[6]; NIH3T3, read-out: IC50 CMV binding assay
  IC50: 50 µg/mL (≈ 38.5 µM)
[7]
  N-9-induced release of IL-1 and IL-8 by vaginal cells: decreased N-9-induced release of IL-1 and IL-8
  Potency, Proinflammatory Cytokines (ELISA): None
  stimulation of proinflammatory cytokines: no stimulation of proinflammatory cytokines
[7]; human, 6 h
  release of IL-1β by cultured vaginal cells: did not induce the release of IL-1β
[8]; 5 mg/mL
  effect on growth of Lactobacillus gasseri: no inhibitory effect
[8]; 5 mg/mL (highest concentration tested)
  growth of Lactobacillus gasseri, % of control: 107 % of control
[8]; max. concentration tested = 5 mg/mL
  Potency, Lactobacilli (Doubling time): None
